According to patent EP1171107B1, “USE OF A PHARMACEUTICAL COMPOSITION IN THE MANUFACTURE OF A MEDICAMENT FOR THE TREATMENT OF PATHOLOGICAL CONDITIONS OF THE EYE CAUSED BY BACTERIA, VIRUSES, FUNGI, YEASTS AND PROTOZOA” (Dr. GERHARD MANN chem.-pharm. Fabrik GmbH, priority 1999, dated 2000):

Legend:
Type in all cases: cell-based
E.coli [1] = assay: Quantitative germ count (re-isolation, surface method) after inoculating the test preparation; settings: Ausgangskeimzahl 2,7 x 10^5 KBE/ml
H.influenzae [2] = assay: as above; settings: Ausgangskeimzahl 2,8 x 10^5 KBE/ml
How it was run: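 Surviving germs were counted by the surface method: an aliquot was spiral-plated on Kochblut-Agar and incubated at 33±2°C for max. 4 Tage, giving re-isolated counts in KBE/ml with a detection limit of 100 KBE/ml. Initial germ counts were also set by spiral-plater surface plating. The H. influenzae strain was pretested biochemically for identity and purity.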

Sc. pneumoniae [3] = assay: as above; settings: Ausgangskeimzahl 3,7 x 10^5 KBE/ml
How it was run: (§1)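 Test preparations were contaminated with ca. 10^5 CFU/ml of each strain, then sampled at 2, 6, 8, 24, 32, 48 and 72 h. Cells were centrifuged 10 min at 3000 rpm, washed in NaCl-peptone buffer, resuspended and spiral-plated on Caso agar at 33±2°C for max. 4 days. Detection limit was 100 CFU/ml.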

P.aeruginosa [4] = assay: as above; settings: Ausgangskeimzahl 2,7 x 10^5 KBE/ml
How it was run: as §1

S.epidermidis [5] = assay: as above; settings: Ausgangskeimzahl 2,1 x 10^5 KBE/ml
How it was run: as §1

E.coli [6] = assay: Qualitative examination: enrichment of the inoculated test preparation in broth
How it was run: (§2)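 Test preparations (5 ml) inoculated with ~10^5 CFU/ml; after 2, 6, 8, 24, 32, 48 and 72 h, centrifuged, washed and resuspended in NaCl-peptone buffer. 2 ml enriched in 20 ml Caso broth (Fildes medium for H. influenzae), incubated up to 4 days at 33±2°C; negative enrichment indicates elimination of inoculum.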

S.aureus = assay: as above
How it was run: as §2

S.epidermidis [7] = assay: as above
How it was run: as §2

Sc. pneumoniae [8] = assay: as above
How it was run: as §2

H.influenzae [9] = assay: as above
How it was run: as §2

P.aeruginosa [10] = assay: as above
How it was run: as §2

Benzalkoniumchlorid [Benzalkoniumchlorid 0,001 Gew.-%]
Ergebnis der Reisolierung (in KBE/ml) (E.coli [1]; 2 h after inoculation): <100 KBE/ml
Ergebnis der Reisolierung (in KBE/ml) (E.coli [1]; 4 h after inoculation): <100 KBE/ml
Ergebnis der Reisolierung (in KBE/ml) (E.coli [1]; 6 h after inoculation): <100 KBE/ml
Ergebnis der Reisolierung (in KBE/ml) (E.coli [1]; 8 h after inoculation): <100 KBE/ml
Ergebnis der Reisolierung (in KBE/ml) (E.coli [1]; 24 h after inoculation): <100 KBE/ml
Ergebnis der Reisolierung (in KBE/ml) (E.coli [1]; 32 h after inoculation): <100 KBE/ml
Ergebnis der Reisolierung (in KBE/ml) (E.coli [1]; 48 h after inoculation): <100 KBE/ml
Ergebnis der Reisolierung (in KBE/ml) (E.coli [1]; 72 h after inoculation): <100 KBE/ml
Ergebnis der Reisolierung (in KBE/ml) (H.influenzae [2]; 2 h after inoculation): <100 KBE/ml
Ergebnis der Reisolierung (in KBE/ml) (H.influenzae [2]; 4 h after inoculation): <100 KBE/ml
Ergebnis der Reisolierung (in KBE/ml) (H.influenzae [2]; 6 h after inoculation): <100 KBE/ml
Ergebnis der Reisolierung (in KBE/ml) (H.influenzae [2]; 8 h after inoculation): <100 KBE/ml
Ergebnis der Reisolierung (in KBE/ml) (H.influenzae [2]; 24 h after inoculation): <100 KBE/ml
Ergebnis der Reisolierung (in KBE/ml) (H.influenzae [2]; 32 h after inoculation): <100 KBE/ml
Ergebnis der Reisolierung (in KBE/ml) (H.influenzae [2]; 48 h after inoculation): <100 KBE/ml
Ergebnis der Reisolierung (in KBE/ml) (H.influenzae [2]; 72 h after inoculation): <100 KBE/ml
Ergebnis der Reisolierung (in KBE/ml) (Sc. pneumoniae [3]; 2 h after inoculation): <100 KBE/ml
Ergebnis der Reisolierung (in KBE/ml) (Sc. pneumoniae [3]; 4 h after inoculation): <100 KBE/ml
Ergebnis der Reisolierung (in KBE/ml) (Sc. pneumoniae [3]; 6 h after inoculation): <100 KBE/ml
Ergebnis der Reisolierung (in KBE/ml) (Sc. pneumoniae [3]; 8 h after inoculation): <100 KBE/ml
Ergebnis der Reisolierung (in KBE/ml) (Sc. pneumoniae [3]; 24 h after inoculation): <100 KBE/ml
Ergebnis der Reisolierung (in KBE/ml) (Sc. pneumoniae [3]; 32 h after inoculation): <100 KBE/ml
Ergebnis der Reisolierung (in KBE/ml) (Sc. pneumoniae [3]; 48 h after inoculation): <100 KBE/ml
Ergebnis der Reisolierung (in KBE/ml) (Sc. pneumoniae [3]; 72 h after inoculation): <100 KBE/ml
Ergebnis der Reisolierung (in KBE/ml) (P.aeruginosa [4]; 2 h after inoculation): <100 KBE/ml
Ergebnis der Reisolierung (in KBE/ml) (P.aeruginosa [4]; 4 h after inoculation): <100 KBE/ml
Ergebnis der Reisolierung (in KBE/ml) (P.aeruginosa [4]; 6 h after inoculation): <100 KBE/ml
Ergebnis der Reisolierung (in KBE/ml) (P.aeruginosa [4]; 8 h after inoculation): <100 KBE/ml
Ergebnis der Reisolierung (in KBE/ml) (P.aeruginosa [4]; 24 h after inoculation): <100 KBE/ml
Ergebnis der Reisolierung (in KBE/ml) (P.aeruginosa [4]; 32 h after inoculation): <100 KBE/ml
Ergebnis der Reisolierung (in KBE/ml) (P.aeruginosa [4]; 48 h after inoculation): <100 KBE/ml
Ergebnis der Reisolierung (in KBE/ml) (P.aeruginosa [4]; 72 h after inoculation): <100 KBE/ml
Ergebnis der Reisolierung (in KBE/ml) (S.epidermidis [5]; 2 h after inoculation): <100 KBE/ml
Ergebnis der Reisolierung (in KBE/ml) (S.epidermidis [5]; 4 h after inoculation): <100 KBE/ml
Ergebnis der Reisolierung (in KBE/ml) (S.epidermidis [5]; 6 h after inoculation): <100 KBE/ml
Ergebnis der Reisolierung (in KBE/ml) (S.epidermidis [5]; 8 h after inoculation): <100 KBE/ml
Ergebnis der Reisolierung (in KBE/ml) (S.epidermidis [5]; 24 h after inoculation): <100 KBE/ml
Ergebnis der Reisolierung (in KBE/ml) (S.epidermidis [5]; 32 h after inoculation): <100 KBE/ml
Ergebnis der Reisolierung (in KBE/ml) (S.epidermidis [5]; 48 h after inoculation): <100 KBE/ml
Ergebnis der Reisolierung (in KBE/ml) (S.epidermidis [5]; 72 h after inoculation): <100 KBE/ml
Ergebnis der Reisolierung qualitiativ (+/-) nach Anreicherung (E.coli [6]; 2 h after inoculation): -
Ergebnis der Reisolierung qualitiativ (+/-) nach Anreicherung (E.coli [6]; 4 h after inoculation): -
Ergebnis der Reisolierung qualitiativ (+/-) nach Anreicherung (E.coli [6]; 6 h after inoculation): -
Ergebnis der Reisolierung qualitiativ (+/-) nach Anreicherung (E.coli [6]; 8 h after inoculation): -
Ergebnis der Reisolierung qualitiativ (+/-) nach Anreicherung (E.coli [6]; 24 h after inoculation): -
Ergebnis der Reisolierung qualitiativ (+/-) nach Anreicherung (E.coli [6]; 32 h after inoculation): -
Ergebnis der Reisolierung qualitiativ (+/-) nach Anreicherung (E.coli [6]; 48 h after inoculation): -
Ergebnis der Reisolierung qualitiativ (+/-) nach Anreicherung (E.coli [6]; 72 h after inoculation): -
Ergebnis der Reisolierung qualitiativ (+/-) nach Anreicherung (S.aureus; 2 h after inoculation): -
Ergebnis der Reisolierung qualitiativ (+/-) nach Anreicherung (S.aureus; 4 h after inoculation): -
Ergebnis der Reisolierung qualitiativ (+/-) nach Anreicherung (S.aureus; 6 h after inoculation): -
Ergebnis der Reisolierung qualitiativ (+/-) nach Anreicherung (S.aureus; 8 h after inoculation): -
Ergebnis der Reisolierung qualitiativ (+/-) nach Anreicherung (S.aureus; 24 h after inoculation): -
Ergebnis der Reisolierung qualitiativ (+/-) nach Anreicherung (S.aureus; 32 h after inoculation): -
Ergebnis der Reisolierung qualitiativ (+/-) nach Anreicherung (S.aureus; 48 h after inoculation): -
Ergebnis der Reisolierung qualitiativ (+/-) nach Anreicherung (S.aureus; 72 h after inoculation): -
Ergebnis der Reisolierung qualitiativ (+/-) nach Anreicherung (S.epidermidis [7]; 2 h after inoculation): -
Ergebnis der Reisolierung qualitiativ (+/-) nach Anreicherung (S.epidermidis [7]; 4 h after inoculation): -
Ergebnis der Reisolierung qualitiativ (+/-) nach Anreicherung (S.epidermidis [7]; 6 h after inoculation): -
Ergebnis der Reisolierung qualitiativ (+/-) nach Anreicherung (S.epidermidis [7]; 8 h after inoculation): -
Ergebnis der Reisolierung qualitiativ (+/-) nach Anreicherung (S.epidermidis [7]; 24 h after inoculation): -
Ergebnis der Reisolierung qualitiativ (+/-) nach Anreicherung (S.epidermidis [7]; 32 h after inoculation): -
Ergebnis der Reisolierung qualitiativ (+/-) nach Anreicherung (S.epidermidis [7]; 48 h after inoculation): -
Ergebnis der Reisolierung qualitiativ (+/-) nach Anreicherung (S.epidermidis [7]; 72 h after inoculation): -
Ergebnis der Reisolierung qualitiativ (+/-) nach Anreicherung (Sc. pneumoniae [8]; 2 h after inoculation): -
Ergebnis der Reisolierung qualitiativ (+/-) nach Anreicherung (Sc. pneumoniae [8]; 4 h after inoculation): -
Ergebnis der Reisolierung qualitiativ (+/-) nach Anreicherung (Sc. pneumoniae [8]; 6 h after inoculation): -
Ergebnis der Reisolierung qualitiativ (+/-) nach Anreicherung (Sc. pneumoniae [8]; 8 h after inoculation): -
Ergebnis der Reisolierung qualitiativ (+/-) nach Anreicherung (Sc. pneumoniae [8]; 24 h after inoculation): -
Ergebnis der Reisolierung qualitiativ (+/-) nach Anreicherung (Sc. pneumoniae [8]; 32 h after inoculation): -
Ergebnis der Reisolierung qualitiativ (+/-) nach Anreicherung (Sc. pneumoniae [8]; 48 h after inoculation): -
Ergebnis der Reisolierung qualitiativ (+/-) nach Anreicherung (Sc. pneumoniae [8]; 72 h after inoculation): -
Ergebnis der Reisolierung qualitiativ (+/-) nach Anreicherung (H.influenzae [9]; 2 h after inoculation): -
Ergebnis der Reisolierung qualitiativ (+/-) nach Anreicherung (H.influenzae [9]; 4 h after inoculation): -
Ergebnis der Reisolierung qualitiativ (+/-) nach Anreicherung (H.influenzae [9]; 6 h after inoculation): -
Ergebnis der Reisolierung qualitiativ (+/-) nach Anreicherung (H.influenzae [9]; 8 h after inoculation): -
Ergebnis der Reisolierung qualitiativ (+/-) nach Anreicherung (H.influenzae [9]; 24 h after inoculation): -
Ergebnis der Reisolierung qualitiativ (+/-) nach Anreicherung (H.influenzae [9]; 32 h after inoculation): -
Ergebnis der Reisolierung qualitiativ (+/-) nach Anreicherung (H.influenzae [9]; 48 h after inoculation): -
Ergebnis der Reisolierung qualitiativ (+/-) nach Anreicherung (H.influenzae [9]; 72 h after inoculation): -
Ergebnis der Reisolierung qualitiativ (+/-) nach Anreicherung (P.aeruginosa [10]; 2 h after inoculation): -
Ergebnis der Reisolierung qualitiativ (+/-) nach Anreicherung (P.aeruginosa [10]; 4 h after inoculation): -
Ergebnis der Reisolierung qualitiativ (+/-) nach Anreicherung (P.aeruginosa [10]; 6 h after inoculation): -
Ergebnis der Reisolierung qualitiativ (+/-) nach Anreicherung (P.aeruginosa [10]; 8 h after inoculation): -
Ergebnis der Reisolierung qualitiativ (+/-) nach Anreicherung (P.aeruginosa [10]; 24 h after inoculation): -
Ergebnis der Reisolierung qualitiativ (+/-) nach Anreicherung (P.aeruginosa [10]; 32 h after inoculation): -
Ergebnis der Reisolierung qualitiativ (+/-) nach Anreicherung (P.aeruginosa [10]; 48 h after inoculation): -
Ergebnis der Reisolierung qualitiativ (+/-) nach Anreicherung (P.aeruginosa [10]; 72 h after inoculation): -
